Legend:
[1] = system: SARS-CoV-2 mediated cell-to-cell fusion; assay type: cell-based; conditions: 0.8 to 25 μM; 24 h
[2] = system: sphingomyelin on the plasma membrane in Vero E6 cells; assay type: cell-based; conditions: 5 μM, 30 min, versus control (DMSO)
[3] = system: SARS-CoV-2 (WK-521, ancestral strain); test: SARS-CoV-2 inhibition MTT assay in Vero E6/TMPRSS2 cells; assay type: cell-based; conditions: for EC50: Severe acute respiratory syndrome coronavirus 2, VeroE6/TMPRSS2; for Selectivity index: between EC50 and CC50, WK-521, Vero E6/TMPRSS2 cells
[4] = system: high fat diet-induced obesity mice models; conditions: oral intake; cited from earlier work
in vitro = conditions: African green monkey

Row | Structure (SMILES) | inhibition of cell fusion (yellow hypertrophic cells) [1] | fluorescence intensity of EGFP-NT-Lys on the plasma membrane (clustered SM) [2] | fluorescence intensity of EqtII-EGFP (dispersed SM) [2] | EC50 [3] [µM] | Selectivity index [3] | efficacies in high fat diet-induced obesity mice [4] | CC50 (in vitro) [µM]
1 | O=C(CCCCCCCCc1ccc(O)c(O)c1)c1c(O)cccc1O [Compound 1, Malabaricone C] | increased in a dose-dependent manner | lower than that of the control | almost no difference | 1.5 | 9.7 | reducing weight gain, improving glucose tolerance, and reducing hepatic steatosis | 14
2 | CCCCCC/C=C\CCCCCCCc1cccc(O)c1C(=O)O [Ginkgolic acid] | – | – | – | 7.9 | – | – | –
3 | CC(C)C(=O)OC[C@H]1O[C@@H](n2ccc(NO)nc2=O)[C@H](O)[C@@H]1O [Molnupiravir] | – | – | – | 0.15 | 33.8 | – | 5.3
4 | CCC(CC)COC(=O)[C@H](C)N[P@](=O)(OC[C@H]1O[C@@](C#N)(c2ccc3c(N)ncnn23)[C@H](O)[C@@H]1O)Oc1ccccc1 [Remdesivir] | – | – | – | 0.5 | – | – | > 10
